According to US11584713B2, “25-hydroxycholecalciferol monohydrate crystal, preparation method therefor and microemulsion using same” (SHANDONG HAINENG BIOENGINEERING CO., LTD., priority 2018, dated 2023):

Key:
[1] = Stability test, left open at 25° C., content of 25-hydroxycholecalciferol by HPLC; assay type: physicochemical; details: for Content of 25-hydroxycholecalciferol: left open at 25° C.
Description: 6. Stability Test the 25-hydroxycholecalciferol monohydrate crystal prepared in the present embodiment was left open at 25° C., and a content of 25-hydroxycholecalciferol contained therein was tested after one month, three months and six months respectively, and meanwhile, 25-hydroxycholecalciferol was used as a control example, and the results were shown in Table 2. The content of 25-hydroxycholecalciferol was measured by the following method: taking a sample to prepare a solution of about 10 μg/mL, injecting 20 μL for a HPLC analysis, and calculating the content thereof according to an external standard method. Test conditions of the HPLC were as follows: chromatographic column: C18 column; internal diameter: 4.6 mm; length: 150 mm, particle size: 5 μm; detection wavelength: 265 nm; temperature of column: 30° C.; flow rate: 1.5 mL/min (which may be adjusted according to desired retention time and a degree of separation of 25-hydroxycholecalciferol and a 25-hydroxycholecalciferol precursor); injection volume: 20 uL; and recording time: 2 times the retention time of main peak.

[2] = cited from earlier work

Content of 25-hydroxycholecalciferol ([1]; 0 day)	Content of 25-hydroxycholecalciferol ([1]; one month)	Content of 25-hydroxycholecalciferol ([1]; six months)	Content of 25-hydroxycholecalciferol ([1]; three months)	Loss of 25-hydroxycholecalciferol (in words) ([1]; after six months of being left open at 25° C.)	SMILES	solubility in diethyl ether ([2]; diethyl ether)	solubility in dimethyl sulfoxide ([2]; dimethyl sulfoxide)	solubility in ethanol ([2]; ethanol)	solubility in methanol ([2]; methanol)	solubility in water ([2]; water)
99.23%	65.03%	29.61%	47.65%	–	C=C1CC[C@H](O)C/C1=C/C=C1\CCC[C@]2(C)[C@@H]([C@H](C)CCCC(C)(C)O)CC[C@@H]12 [25-hydroxycholecalciferol]	slightly soluble	easily soluble	easily soluble	easily soluble	almost insoluble
99.60%	99.05%	96.59%	98.46%	almost no loss	C=C1CC[C@H](O)C/C1=C/C=C1\CCC[C@]2(C)[C@@H]([C@H](C)CCCC(C)(C)O)CC[C@@H]12 [25-hydroxycholecalciferol monohydrate]	–	–	–	–	–
